# From ChEMBL document CHEMBL1141796, “Hirsutide, a cyclic tetrapeptide from a spider-derived entomopathogenic fungus, Hirsutella sp” (J Nat Prod, 2005)
# The source made the active and inactive calls. The calls are words filed in the database; no cut-off is given here.
# Columns and labels:
# [1] = test system: Escherichia coli; test: Antibacterial activity against Escherichia coli by agar diffusion assay; format: functional, organism-based
# [2] = test system: Trichophyton mentagrophytes; test: Antifungal activity against Trichophyton mentagrophytes by agar diffusion assay; format: functional, organism-based
# [3] = test system: Candida albicans; test: Antifungal activity against Candida albicans by agar diffusion assay; format: functional, organism-based
# [4] = test system: Amorphotheca resinae; test: Antifungal activity against Cladosporium resinae by agar diffusion assay; format: functional, organism-based
# [5] = test system: Bacillus subtilis; test: Antibacterial activity against Bacillus subtilis by agar diffusion assay; format: functional, organism-based
# [6] = test system: P388; test: Cytotoxicity against mouse P388 cells; format: functional, cell-based
compound,measurement,setting,value
CC(=O)O[C@@H]1/C=C/[C@@](C)(O)C(=O)[C@@H](C)C/C=C/[C@H]2[C@@H]3O[C@]3(C)[C@@H](C)[C@H]3[C@H](Cc4ccccc4)NC(=O)[C@@]312 [CYTOCHALASIN Q],Activity,[1],inactive
same,Activity,[2],inactive
same,Activity,[3],inactive
same,Activity,[4],inactive
same,Activity,[5],inactive
same,IC50,[6],2400 nM
